Results: paper PMC5465288, “[^68Ga]/[^188Re] Complexed [CDTMP] Trans-1,2-Cyclohexyldinitrilotetraphosphonic Acid As a Theranostic Agent for Skeletal Metastases” (Frontiers in Medicine, 2017)

Experiment: HAp (hydroxyapatite) binding study
Details: 20 mg synthetic HAp in 1 mL saline, 10 min incubation at ambient temperature
Method: To evaluate HAp binding, 20 mg of synthetic HAp was allowed to incubate in 1 mL of isotonic saline for 24 h. Labeled complex in a volume of 50 µL was then added, subjected to vortex for 10 s and incubated at ambient temperature for 10 min. After incubation, samples had been centrifuged, and the supernatant was removed. Hap fraction was washed twice with 0.5 mL saline, and all the washes were collected. Radioactivity was then checked in combined liquids and HAp fraction using gamma counter.

With “[^68Ga]-trans-1,2-cyclohexyldinitrilo tetramethylene phosphonic acid [[^68Ga]-CDTMP]” the “binding to HAp” value was 89 ± 3%.
